Results from ChEMBL document CHEMBL1201862, “PubChem BioAssay data set” (2004).
Values belong to the compound of their own block, whether it stands above or below them. The source made the active and inactive calls.

What was measured:
[1] = biological target: T1, Kappa-type opioid receptor (Homo sapiens, UniProt P41145); assay: SAR analysis of small molecule antagonists of the kappa opioid receptor via a luminescent beta-arrestin assay - Set 5. [Related pubchem assays (depositor defined):AID1778, AID1785]; format: functional
T1 sequence (P41145 whole entry): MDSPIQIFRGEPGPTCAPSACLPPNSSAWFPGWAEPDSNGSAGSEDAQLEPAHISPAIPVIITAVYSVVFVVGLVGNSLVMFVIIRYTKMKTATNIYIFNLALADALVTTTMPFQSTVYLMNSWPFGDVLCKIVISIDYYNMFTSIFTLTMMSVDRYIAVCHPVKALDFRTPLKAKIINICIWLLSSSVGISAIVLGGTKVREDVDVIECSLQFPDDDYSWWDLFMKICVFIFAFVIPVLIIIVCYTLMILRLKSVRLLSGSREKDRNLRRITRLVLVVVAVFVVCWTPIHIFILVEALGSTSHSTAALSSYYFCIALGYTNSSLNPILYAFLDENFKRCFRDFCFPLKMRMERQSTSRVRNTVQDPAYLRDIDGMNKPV

[2] = biological target: T1, Kappa-type opioid receptor; assay: SAR analysis of small molecule antagonists of the kappa opioid receptor via a luminescent beta-arrestin assay - Set 4. [Related pubchem assays (depositor defined):AID1777, AID1778, AID1785, AID1786, AID1966, AID2133, AID2136, AID2285]; format: functional
[3] = biological target: Voltage-dependent T-type calcium channel subunit alpha-1H (Homo sapiens, UniProt O95180); assay: human CACNA1H calcium influx blockade – cell-based, synthetic library set 2, HEK293 HH8, Fluo-4, SAR follow-up (AID 493023); format: functional
Chain of Voltage-dependent T-type calcium channel subunit alpha-1H (O95180 whole entry): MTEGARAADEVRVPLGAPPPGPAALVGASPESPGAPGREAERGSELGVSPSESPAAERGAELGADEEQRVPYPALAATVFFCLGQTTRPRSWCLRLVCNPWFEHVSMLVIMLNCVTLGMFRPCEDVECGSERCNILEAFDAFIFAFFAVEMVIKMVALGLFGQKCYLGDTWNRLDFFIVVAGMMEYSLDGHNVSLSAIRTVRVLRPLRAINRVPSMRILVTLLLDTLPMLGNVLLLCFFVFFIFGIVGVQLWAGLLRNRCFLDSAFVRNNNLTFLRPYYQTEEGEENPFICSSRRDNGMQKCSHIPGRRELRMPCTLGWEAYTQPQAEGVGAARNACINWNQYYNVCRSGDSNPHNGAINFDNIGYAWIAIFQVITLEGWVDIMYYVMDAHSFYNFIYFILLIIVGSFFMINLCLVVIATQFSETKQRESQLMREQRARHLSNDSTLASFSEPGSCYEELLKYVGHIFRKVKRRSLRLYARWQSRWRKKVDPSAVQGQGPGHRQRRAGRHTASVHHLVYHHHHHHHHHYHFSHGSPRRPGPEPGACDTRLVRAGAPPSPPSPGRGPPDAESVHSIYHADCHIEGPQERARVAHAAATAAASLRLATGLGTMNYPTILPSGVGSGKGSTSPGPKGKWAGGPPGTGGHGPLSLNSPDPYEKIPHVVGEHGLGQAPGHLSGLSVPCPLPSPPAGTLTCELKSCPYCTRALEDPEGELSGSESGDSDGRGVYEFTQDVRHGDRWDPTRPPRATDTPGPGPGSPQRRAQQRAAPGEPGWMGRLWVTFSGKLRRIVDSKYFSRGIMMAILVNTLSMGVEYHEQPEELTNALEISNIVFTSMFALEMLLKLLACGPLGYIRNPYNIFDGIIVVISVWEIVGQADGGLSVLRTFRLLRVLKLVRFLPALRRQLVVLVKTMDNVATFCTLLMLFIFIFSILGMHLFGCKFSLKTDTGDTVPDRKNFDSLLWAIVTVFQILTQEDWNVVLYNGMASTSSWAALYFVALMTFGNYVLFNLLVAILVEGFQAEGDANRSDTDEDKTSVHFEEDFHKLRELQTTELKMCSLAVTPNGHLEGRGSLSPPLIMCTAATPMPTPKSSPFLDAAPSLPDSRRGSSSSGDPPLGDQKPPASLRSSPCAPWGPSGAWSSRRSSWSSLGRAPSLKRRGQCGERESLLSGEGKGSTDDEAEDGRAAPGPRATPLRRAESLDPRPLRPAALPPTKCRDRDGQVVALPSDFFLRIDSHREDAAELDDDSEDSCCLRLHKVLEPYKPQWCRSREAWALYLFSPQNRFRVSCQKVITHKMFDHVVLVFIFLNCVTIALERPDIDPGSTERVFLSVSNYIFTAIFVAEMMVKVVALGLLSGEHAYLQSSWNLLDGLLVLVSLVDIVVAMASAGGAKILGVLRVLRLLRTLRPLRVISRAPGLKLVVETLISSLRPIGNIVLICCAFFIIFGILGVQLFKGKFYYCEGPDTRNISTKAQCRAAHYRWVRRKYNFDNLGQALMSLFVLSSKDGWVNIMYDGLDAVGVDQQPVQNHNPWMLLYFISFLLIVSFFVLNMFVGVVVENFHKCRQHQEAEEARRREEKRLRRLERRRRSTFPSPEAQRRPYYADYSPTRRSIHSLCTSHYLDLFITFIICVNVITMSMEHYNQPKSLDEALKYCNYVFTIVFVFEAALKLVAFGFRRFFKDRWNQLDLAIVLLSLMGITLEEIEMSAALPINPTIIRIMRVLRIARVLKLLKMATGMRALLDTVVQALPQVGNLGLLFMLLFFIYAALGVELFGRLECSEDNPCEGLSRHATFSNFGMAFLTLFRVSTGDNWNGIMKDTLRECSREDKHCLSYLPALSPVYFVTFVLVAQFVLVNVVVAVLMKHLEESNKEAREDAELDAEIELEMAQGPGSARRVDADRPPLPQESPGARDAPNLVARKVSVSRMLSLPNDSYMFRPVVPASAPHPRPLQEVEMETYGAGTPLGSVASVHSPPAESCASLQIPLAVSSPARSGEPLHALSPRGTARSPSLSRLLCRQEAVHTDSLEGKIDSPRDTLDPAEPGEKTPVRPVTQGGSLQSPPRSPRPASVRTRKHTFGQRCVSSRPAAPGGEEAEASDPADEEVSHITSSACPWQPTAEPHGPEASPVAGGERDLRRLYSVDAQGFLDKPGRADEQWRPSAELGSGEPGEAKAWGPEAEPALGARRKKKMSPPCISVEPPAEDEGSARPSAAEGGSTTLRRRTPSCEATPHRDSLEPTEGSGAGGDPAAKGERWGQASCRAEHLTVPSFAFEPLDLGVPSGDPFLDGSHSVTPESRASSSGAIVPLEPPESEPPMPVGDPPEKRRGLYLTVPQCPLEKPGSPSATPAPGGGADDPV

[4] = biological target: Intestinal-type alkaline phosphatase (Homo sapiens, UniProt P09923); assay: human intestinal alkaline phosphatase activators, dose response, biochemical, luminescence, uHTS hits (AID 463120); format: functional
Chain of Intestinal-type alkaline phosphatase (P09923 whole entry, the tested form may be a part): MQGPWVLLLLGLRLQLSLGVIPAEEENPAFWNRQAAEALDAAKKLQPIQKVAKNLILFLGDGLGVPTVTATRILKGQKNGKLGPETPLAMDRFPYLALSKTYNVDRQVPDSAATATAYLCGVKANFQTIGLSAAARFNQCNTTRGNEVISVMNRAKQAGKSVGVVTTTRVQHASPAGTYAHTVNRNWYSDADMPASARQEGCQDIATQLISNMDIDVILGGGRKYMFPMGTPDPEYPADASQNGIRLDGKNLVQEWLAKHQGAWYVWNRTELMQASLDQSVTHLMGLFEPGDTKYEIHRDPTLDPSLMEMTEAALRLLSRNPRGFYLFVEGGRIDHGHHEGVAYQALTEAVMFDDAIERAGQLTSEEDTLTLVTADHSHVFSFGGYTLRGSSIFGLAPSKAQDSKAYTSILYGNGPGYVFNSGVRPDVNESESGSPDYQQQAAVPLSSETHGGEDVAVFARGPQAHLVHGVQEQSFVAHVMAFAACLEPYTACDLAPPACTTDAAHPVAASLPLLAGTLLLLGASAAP

[5] = biological target: T2, Sentrin-specific protease 1 (Homo sapiens, UniProt Q9P0U3); assay: SENP1 catalytic domain blockers, concentration series – biochemical, kinetic FRET, dose response (AID 651697); format: functional; settings: read-out: IC50_Mean
T2 sequence (Q9P0U3 whole entry): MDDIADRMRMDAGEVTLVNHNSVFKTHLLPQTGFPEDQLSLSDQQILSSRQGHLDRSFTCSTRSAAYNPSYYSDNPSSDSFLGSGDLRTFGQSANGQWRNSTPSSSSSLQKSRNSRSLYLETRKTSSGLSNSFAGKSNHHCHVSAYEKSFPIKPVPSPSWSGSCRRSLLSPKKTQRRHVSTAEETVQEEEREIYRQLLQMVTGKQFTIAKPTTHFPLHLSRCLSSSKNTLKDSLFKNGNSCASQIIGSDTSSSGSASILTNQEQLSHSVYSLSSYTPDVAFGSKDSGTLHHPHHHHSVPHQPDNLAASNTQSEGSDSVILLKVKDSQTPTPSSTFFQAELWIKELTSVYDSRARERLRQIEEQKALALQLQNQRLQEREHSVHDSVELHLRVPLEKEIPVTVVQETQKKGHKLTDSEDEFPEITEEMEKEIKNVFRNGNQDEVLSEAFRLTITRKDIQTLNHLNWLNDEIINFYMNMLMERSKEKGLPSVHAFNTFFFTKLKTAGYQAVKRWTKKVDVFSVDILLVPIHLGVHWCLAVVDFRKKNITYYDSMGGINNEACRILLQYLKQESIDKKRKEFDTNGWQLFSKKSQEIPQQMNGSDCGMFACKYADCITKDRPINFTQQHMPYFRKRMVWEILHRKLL

[6] = biological target: T2, Sentrin-specific protease 1; assay: Dose response confirmation of small molecule inhibitors of the catalytic domain of the SUMO protease, SENP1 in a FRET assay.; format: functional; settings: read-out: IC50_Mean
[7] = biological target: T3, Sphingosine 1-phosphate receptor 4 (Homo sapiens, UniProt O95977); assay: Fluorescence dose response cell-based high throughput screening assay for agonists of the Sphingosine 1-Phosphate Receptor 4 (S1P4). [Related pubchem assays: 1509 (Primary screen.), 1523 (Confirmation screen in triplicates.)]; format: functional
T3 sequence (O95977 whole entry): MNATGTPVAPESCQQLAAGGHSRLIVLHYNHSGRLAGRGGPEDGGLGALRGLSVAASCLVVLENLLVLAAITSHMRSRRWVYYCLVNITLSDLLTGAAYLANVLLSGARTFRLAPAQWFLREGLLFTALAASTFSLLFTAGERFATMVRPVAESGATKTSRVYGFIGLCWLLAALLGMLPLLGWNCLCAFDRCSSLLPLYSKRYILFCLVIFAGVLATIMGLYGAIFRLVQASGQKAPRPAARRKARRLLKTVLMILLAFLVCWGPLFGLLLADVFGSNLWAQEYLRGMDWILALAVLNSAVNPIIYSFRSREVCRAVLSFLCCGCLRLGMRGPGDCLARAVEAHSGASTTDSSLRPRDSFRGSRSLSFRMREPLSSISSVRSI

[8] = biological target: T4, 5-hydroxytryptamine receptor 1A (Homo sapiens, UniProt P08908); format: functional
T4 sequence (P08908 whole entry): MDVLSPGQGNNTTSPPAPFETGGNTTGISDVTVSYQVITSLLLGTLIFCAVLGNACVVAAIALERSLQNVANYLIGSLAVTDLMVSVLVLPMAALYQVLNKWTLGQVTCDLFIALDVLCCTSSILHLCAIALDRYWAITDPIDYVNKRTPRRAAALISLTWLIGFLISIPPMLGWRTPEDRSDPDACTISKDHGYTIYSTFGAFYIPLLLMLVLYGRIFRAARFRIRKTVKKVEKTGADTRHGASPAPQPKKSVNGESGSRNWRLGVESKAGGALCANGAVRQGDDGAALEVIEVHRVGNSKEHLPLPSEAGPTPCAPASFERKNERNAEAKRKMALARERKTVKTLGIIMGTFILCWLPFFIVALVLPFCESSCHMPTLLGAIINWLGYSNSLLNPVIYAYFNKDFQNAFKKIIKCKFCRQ

[9] = biological target: Sphingosine 1-phosphate receptor 2 (Homo sapiens, UniProt O95136); assay: Dose Response Cell Based Assay for Agonists of the S1P2 Receptor. [Related pubchem assays: 729, 736, 843 ]; format: functional
[10] = biological target: Sphingosine 1-phosphate receptor 1 (Homo sapiens, UniProt P21453); assay: Fluorescence-based counterscreen assay for S1P4 agonists: Cell-based dose response high throughput screening assay to identify agonists of the Sphingosine 1-Phosphate Receptor 1 (S1P1). [Related pubchem assays (depositor defined):AID1509, AID1523, AID1801, AID463107, AID463118, AID463119, AID463122, AID463123, AID463129, AID463225, AID504400, AID504460]; format: functional
Chain of Sphingosine 1-phosphate receptor 1 (P21453 whole entry): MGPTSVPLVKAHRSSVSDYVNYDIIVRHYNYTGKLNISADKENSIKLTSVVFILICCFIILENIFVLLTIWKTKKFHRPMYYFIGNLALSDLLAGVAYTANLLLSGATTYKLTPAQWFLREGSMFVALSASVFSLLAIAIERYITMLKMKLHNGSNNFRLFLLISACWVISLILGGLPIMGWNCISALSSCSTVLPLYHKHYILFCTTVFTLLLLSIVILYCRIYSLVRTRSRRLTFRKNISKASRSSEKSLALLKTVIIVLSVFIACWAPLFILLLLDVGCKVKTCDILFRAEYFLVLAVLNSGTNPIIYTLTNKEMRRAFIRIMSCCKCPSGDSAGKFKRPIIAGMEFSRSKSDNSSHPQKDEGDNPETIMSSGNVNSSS

[11] = biological target: T5, Tyrosine-protein phosphatase non-receptor type 22 (Homo sapiens, UniProt Q9Y2R2); assay: SAR LYP1 Fluorescent Assay using OMFP substrate for In Vitro dose response studies - Set 3. [Related pubchem assays (depositor defined):AID1779, AID1784, AID2140, AID2686]; format: functional
T5 sequence (Q9Y2R2 whole entry): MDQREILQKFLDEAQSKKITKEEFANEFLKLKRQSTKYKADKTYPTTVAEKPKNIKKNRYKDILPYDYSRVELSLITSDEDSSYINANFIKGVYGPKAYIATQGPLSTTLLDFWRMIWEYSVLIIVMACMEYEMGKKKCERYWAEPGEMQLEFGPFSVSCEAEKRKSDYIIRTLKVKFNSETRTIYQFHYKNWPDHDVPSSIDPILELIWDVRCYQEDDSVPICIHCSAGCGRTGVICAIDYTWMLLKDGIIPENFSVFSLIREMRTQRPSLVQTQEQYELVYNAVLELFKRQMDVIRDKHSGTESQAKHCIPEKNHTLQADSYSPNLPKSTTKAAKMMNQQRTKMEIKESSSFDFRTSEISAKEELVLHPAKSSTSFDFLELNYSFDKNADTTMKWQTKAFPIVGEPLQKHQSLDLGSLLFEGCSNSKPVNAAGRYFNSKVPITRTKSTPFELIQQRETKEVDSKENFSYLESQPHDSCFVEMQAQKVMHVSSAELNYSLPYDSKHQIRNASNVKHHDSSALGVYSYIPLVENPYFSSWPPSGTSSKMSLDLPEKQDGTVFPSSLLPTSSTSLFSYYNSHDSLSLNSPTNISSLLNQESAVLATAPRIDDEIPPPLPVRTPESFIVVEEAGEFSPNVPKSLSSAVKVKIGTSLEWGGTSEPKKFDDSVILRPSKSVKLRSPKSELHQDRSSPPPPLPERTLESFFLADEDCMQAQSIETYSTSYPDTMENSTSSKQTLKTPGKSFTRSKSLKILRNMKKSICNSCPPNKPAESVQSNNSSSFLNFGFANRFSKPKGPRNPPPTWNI

[12] = biological target: T5, Tyrosine-protein phosphatase non-receptor type 22; assay: SAR LYP1 Fluorescent Assay using pCAP substrate for In Vitro dose response studies - Set 2. [Related pubchem assays (depositor defined):AID1779, AID1784, AID2135, AID449727]; format: functional
SUMO-activating enzyme [13] = biological target: T6, SUMO-activating enzyme (Homo sapiens, UniProt Q9UBT2); assay: blockers of UBC9-mediated SUMO conjugation – biochemical, AlphaScreen, SUMOylation inhibitor project, confirmation (AID 2018); format: functional
T6 sequence (Q9UBE0 whole entry): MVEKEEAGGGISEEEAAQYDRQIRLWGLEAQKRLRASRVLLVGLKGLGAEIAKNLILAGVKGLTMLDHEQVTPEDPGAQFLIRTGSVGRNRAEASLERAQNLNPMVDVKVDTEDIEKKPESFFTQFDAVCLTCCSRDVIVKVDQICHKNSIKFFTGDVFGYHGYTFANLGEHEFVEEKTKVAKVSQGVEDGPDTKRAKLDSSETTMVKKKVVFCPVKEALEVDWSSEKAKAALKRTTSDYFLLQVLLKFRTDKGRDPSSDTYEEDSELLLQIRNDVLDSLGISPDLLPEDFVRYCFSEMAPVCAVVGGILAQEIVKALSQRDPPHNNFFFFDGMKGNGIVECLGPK
T6 sequence (Q9UBT2 whole entry): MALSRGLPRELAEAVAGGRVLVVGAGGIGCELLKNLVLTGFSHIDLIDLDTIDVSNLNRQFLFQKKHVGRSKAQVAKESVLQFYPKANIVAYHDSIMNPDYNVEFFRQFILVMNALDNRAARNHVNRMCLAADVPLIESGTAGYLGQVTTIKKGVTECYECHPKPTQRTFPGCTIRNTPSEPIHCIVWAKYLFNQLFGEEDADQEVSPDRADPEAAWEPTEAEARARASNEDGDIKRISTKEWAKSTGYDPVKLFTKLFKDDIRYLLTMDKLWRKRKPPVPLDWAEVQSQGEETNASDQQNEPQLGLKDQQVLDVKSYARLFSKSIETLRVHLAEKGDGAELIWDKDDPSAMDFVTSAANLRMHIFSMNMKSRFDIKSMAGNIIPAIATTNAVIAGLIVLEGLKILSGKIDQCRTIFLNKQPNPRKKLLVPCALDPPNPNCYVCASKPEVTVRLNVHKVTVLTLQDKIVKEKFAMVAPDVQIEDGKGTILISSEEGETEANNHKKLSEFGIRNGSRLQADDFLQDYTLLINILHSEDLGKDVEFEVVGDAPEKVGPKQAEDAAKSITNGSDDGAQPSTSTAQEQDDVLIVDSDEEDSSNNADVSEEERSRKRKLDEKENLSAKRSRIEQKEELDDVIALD

[14] = biological target: T5, Tyrosine-protein phosphatase non-receptor type 22; assay: inhibition of lymphoid tyrosine phosphatase LYP – biochemical, pCAP fluorogenic substrate, fluorescence, set 3, SAR follow-up (AID 449727); format: functional
[15] = biological target: T7, Small ubiquitin-related modifier 1 (Homo sapiens, UniProt P63165); assay: SUMO1 protein-protein binding blockers, potency – biochemical, FRET, dose response (AID 624383); format: functional; settings: read-out: IC50_Mean
T7 sequence (P63165 whole entry): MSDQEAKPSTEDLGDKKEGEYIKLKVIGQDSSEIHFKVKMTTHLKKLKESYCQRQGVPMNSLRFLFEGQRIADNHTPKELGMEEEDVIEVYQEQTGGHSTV

[16] = biological target: T7, Small ubiquitin-related modifier 1; assay: SUMO1 protein interaction blockers, potency – biochemical, fluorescence polarization, uHTS hits, dose response (AID 624382); format: functional; settings: read-out: IC50_Mean
[17] = biological target: T5, Tyrosine-protein phosphatase non-receptor type 22; assay: SAR LYP1 Fluorescent Assay using OMFP substrate for In Vitro dose response studies - Set 2. [Related pubchem assays (depositor defined):AID1779, AID1784, AID2140, AID449726, AID488869]; format: functional
SUMO-activating enzyme [18] = biological target: T6, SUMO-activating enzyme; assay: blockers of SAE1/SAE2–UBC9 SUMO transfer – biochemical, HTRF, uHTS, primary screen (AID 2006); format: protein-complex assay
[19] = biological target: T8, Tyrosine-protein phosphatase non-receptor type 7 (Homo sapiens, UniProt P35236); assay: inhibition of hematopoietic tyrosine phosphatase HePTP – biochemical, set 2, SAR follow-up (AID 449736); format: functional
T8 sequence (P35236 whole entry): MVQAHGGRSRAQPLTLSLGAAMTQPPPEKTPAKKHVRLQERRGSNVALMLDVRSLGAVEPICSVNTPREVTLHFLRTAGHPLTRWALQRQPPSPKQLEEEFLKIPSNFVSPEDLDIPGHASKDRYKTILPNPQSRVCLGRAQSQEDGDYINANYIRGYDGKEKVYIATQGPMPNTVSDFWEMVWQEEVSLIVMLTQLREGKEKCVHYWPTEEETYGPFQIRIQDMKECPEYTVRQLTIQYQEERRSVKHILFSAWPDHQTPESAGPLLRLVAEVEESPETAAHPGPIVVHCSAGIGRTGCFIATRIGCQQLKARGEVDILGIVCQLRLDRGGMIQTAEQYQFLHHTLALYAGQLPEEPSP

[20] = biological target: T9, Tyrosine-protein phosphatase non-receptor type 12 (Homo sapiens, UniProt Q05209); assay: SAR Selectivity Analysis of small molecule inhibitors of PEST using pCAP in a fluorescence assay. [Related pubchem assays (depositor defined):AID1779, AID1784, AID2135]; format: functional
T9 sequence (Q05209 whole entry): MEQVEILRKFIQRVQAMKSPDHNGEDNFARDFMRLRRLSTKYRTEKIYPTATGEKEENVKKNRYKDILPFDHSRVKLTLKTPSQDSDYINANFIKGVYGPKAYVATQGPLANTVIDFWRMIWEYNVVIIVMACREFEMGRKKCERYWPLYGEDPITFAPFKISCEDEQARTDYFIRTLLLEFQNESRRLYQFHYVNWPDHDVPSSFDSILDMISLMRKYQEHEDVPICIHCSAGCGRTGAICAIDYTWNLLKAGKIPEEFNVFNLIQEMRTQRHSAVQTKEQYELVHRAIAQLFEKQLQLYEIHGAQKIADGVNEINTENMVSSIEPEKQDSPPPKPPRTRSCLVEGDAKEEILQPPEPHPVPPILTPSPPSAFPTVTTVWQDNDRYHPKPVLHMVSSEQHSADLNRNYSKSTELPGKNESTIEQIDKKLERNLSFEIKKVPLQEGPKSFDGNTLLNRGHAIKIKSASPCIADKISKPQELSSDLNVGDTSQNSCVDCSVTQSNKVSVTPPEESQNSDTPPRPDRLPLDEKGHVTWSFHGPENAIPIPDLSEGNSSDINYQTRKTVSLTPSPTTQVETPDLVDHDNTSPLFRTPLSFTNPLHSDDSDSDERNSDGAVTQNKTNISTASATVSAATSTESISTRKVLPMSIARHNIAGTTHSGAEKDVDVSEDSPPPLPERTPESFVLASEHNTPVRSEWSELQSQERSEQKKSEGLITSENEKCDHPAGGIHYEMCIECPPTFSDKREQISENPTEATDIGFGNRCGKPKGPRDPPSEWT

IC50 [1]: 2.4 µM (active)
IC50 [2]: 3.38 µM (active)
SMILES: Cc1ccc(S(=O)(=O)NCc2ccc(C(=O)NCCN(C)[C@H](C)c3ccccc3)cc2)cc1

EC50 [3]: 10 µM (active)
SMILES: O=C(N[C@H]1CCCN(Cc2ccccc2)C1)c1cc(Cl)cc(Cl)c1

The remaining lines, values behind:

SMILES: O=C(NNc1nc2c(F)cccc2s1)c1cc(=O)c2ccccc2o1
EC50 [4]: 10.3 µM (active)
IC50 [5]: 6.67 µM (active)
IC50 [6]: 7.06 µM (active)

SMILES: CCOC(=O)c1cc2ccc(OC(=O)c3ccco3)cc2oc1=O
EC50 [7]: 0.785 µM (active)
EC50 [8]: > 50 µM (not active)
EC50 [9]: 1.99 µM (active)
EC50 [10]: 2.08 µM (active)

SMILES: COc1cc(/C=C(\C#N)C(=O)Nc2cccc(C(=O)O)c2)ccc1OCc1ccc(Cl)cc1
IC50 [11]: 2.6 µM (active)
IC50 [12]: 6.89 µM (active)
IC50 (SUMO-activating enzyme [13]): 3.61 µM (active)
IC50 [14]: 6.59 µM (active)
IC50 [15]: 13 µM (active)
IC50 [16]: > 66.6 µM (inactive)
IC50 [17]: 4.78 µM (active)
IC50 (SUMO-activating enzyme [18]): 17.5 µM (active)
IC50 [19]: 0.557 µM (active)
IC50 [20]: 2.6 µM (active)
